Measurements from patent US6528494B2 (priority 1996, dated 2003).
Where a name gives a salt, the structure may show the parent alone.

Legend:
Format in all cases: cell-based
adenosine 3 receptor = target: T1, adenosine 3 receptor (Homo sapiens, UniProt P0DMS8); experiment: Agonist activity against adenosine 3 receptor (CHO cells, forskolin-enhanced cAMP/SPAP reporter); conditions: CHO cells transfected with human receptor, forskolin-enhanced cAMP via SPAP, mean of all the versions tested
T1 sequence (P0DMS8 1-318): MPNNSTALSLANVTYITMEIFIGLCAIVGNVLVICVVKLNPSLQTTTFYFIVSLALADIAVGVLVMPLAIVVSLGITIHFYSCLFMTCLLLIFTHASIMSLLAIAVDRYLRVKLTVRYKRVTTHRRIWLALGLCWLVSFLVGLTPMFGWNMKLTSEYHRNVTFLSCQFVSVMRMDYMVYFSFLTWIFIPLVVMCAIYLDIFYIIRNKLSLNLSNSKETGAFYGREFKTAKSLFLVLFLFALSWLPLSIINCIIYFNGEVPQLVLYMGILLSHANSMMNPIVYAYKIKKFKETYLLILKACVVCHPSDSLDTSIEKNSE
Description: (§1) (1) Agonist activity against adenosine 2a, adenosine 1 and adenosine 3 receptor subtypes.
(§2) The effect of test compounds was determined by their effects on basal levels of cAMP (A2a) or on forskolin-enhanced cAMP (A1 and A3) as reflected by changes in levels of SPAP.

adenosine 1 receptor = target: T2, adenosine 1 receptor (Homo sapiens, UniProt P30542); experiment: Agonist activity against adenosine 1 receptor (CHO cells, forskolin-enhanced cAMP/SPAP reporter); conditions: CHO cells transfected with human receptor, forskolin-enhanced cAMP via SPAP, mean of all the versions tested
T2 sequence (P30542 1-326): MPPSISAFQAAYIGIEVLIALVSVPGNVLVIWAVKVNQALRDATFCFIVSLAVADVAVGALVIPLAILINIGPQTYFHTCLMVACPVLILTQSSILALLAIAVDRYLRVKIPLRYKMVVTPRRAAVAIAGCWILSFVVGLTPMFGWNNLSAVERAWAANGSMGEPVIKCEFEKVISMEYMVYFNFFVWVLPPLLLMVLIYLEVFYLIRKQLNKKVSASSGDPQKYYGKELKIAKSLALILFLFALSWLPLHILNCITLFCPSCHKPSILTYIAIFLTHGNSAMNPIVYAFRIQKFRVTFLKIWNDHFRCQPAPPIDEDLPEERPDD
Description: as §1, §2

adenosine 2a receptor = adenosine 2a receptor (Homo sapiens, UniProt P29274); experiment: Agonist activity against adenosine 2a receptor (CHO cells, cAMP/SPAP reporter); conditions: CHO cells transfected with human receptor, basal cAMP via SPAP, mean of all the versions tested
Chain of adenosine 2a receptor (P29274 whole entry): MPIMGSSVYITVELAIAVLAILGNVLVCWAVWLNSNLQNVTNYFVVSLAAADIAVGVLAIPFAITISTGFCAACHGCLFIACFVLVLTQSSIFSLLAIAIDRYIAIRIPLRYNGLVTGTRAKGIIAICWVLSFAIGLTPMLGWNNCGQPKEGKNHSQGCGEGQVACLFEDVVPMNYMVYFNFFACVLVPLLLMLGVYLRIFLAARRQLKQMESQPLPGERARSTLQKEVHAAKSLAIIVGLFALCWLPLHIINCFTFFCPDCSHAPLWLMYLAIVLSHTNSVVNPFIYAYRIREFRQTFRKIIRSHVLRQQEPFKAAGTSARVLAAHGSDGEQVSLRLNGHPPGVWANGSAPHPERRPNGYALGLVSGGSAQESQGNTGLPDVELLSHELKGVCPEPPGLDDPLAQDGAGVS
Description: as §1, §2

Row | SMILES | A3 EC50 as a ratio of that of NECA (adenosine 3 receptor) | A1 EC50 as a ratio of that of NECA (adenosine 1 receptor) | A2a EC50 as a ratio of that of NECA (adenosine 2a receptor) | A3 EC50 as a ratio of that of NECA (adenosine 3 receptor; Dihydrochloride) | A1 EC50 as a ratio of that of NECA (adenosine 1 receptor; Dihydrochloride) | A2a EC50 as a ratio of that of NECA (adenosine 2a receptor; Dihydrochloride)
1 | CCn1nnc([C@H]2O[C@@H](n3cnc4c(N)nc(NC5CC6CCC5C6)nc43)[C@H](O)[C@@H]2O)n1.O=C(O)C(F)(F)F (stereo partly drawn) [Example 19, (2R,3R,4S,5R)-2-[6-Amino-2-(bicyclo[2.2.1]hept-2-ylamino)-purin-9-yl]-5-(2-ethyl-2H-tetrazol-5-yl)-tetrahydro-furan-3,4-diol Trifluoroacetate] | >382 | 85.6 | 0.21 | – | – | –
2 | CCn1nnc([C@H]2O[C@@H](n3cnc4c(N)nc(NCCc5ccc(OC)c(OC)c5)nc43)[C@H](O)[C@@H]2O)n1.O=C(O)C(F)(F)F [Example 20, (2R,3R,4S,5R)-2-{6-Amino-2-[2-(3,4-dimethoxy-phenyl)-ethylamino]-purin-9-yl}-5-(2-ethyl-2H-tetrazol-5-yl)-tetrahydro-furan-3,4-diol Trifluoroacetate] | >183 | 253 | 0.14 | – | – | –
3 | CCn1nnc(C2OC(n3cnc4c(NCC(c5ccccc5)c5ccccc5)nc(NC5CCNC5)nc43)C(O)C2O)n1 [Example 21, (2R,3R,4S,5R)-2-[6-(2,2-Diphenyl-ethylamino)-2-(pyrrolidin-3R-ylamino)-purin-9-yl]-5-(2-ethyl-2H-tetrazol-5-yl)-tetrahydro-furan-3,4-diol Dihydrochloride] | – | – | – | >442 | 237.9 | 0.69
4 | CCn1nnc([C@H]2O[C@@H](n3cnc4c(NCC(c5ccccc5)c5ccccc5)nc(NCCc5cccc(N)n5)nc43)[C@H](O)[C@@H]2O)n1.O=C(O)C(F)(F)F.O=C(O)C(F)(F)F.O=C(O)C(F)(F)F [Example 22, (2R,3R,4S,5R)-2-[2-[2-(6-Amino-pyridin-2-yl)-ethylamino]-6-(2,2-diphenyl-ethylamino)-purin-9-yl]-5-(2-ethyl-2H-tetrazol-5-yl)-tetrahydro-furan-3,4-diol tris(Trifluoroacetate)] | >188 | 86.4 | 0.67 | – | – | –
5 | CCn1nnc(C2OC(n3cnc4c(NCc5cccc(I)c5)nc(NC5CCNC5)nc43)C(O)C2O)n1 [Example 23, (2R,3S,4R,5R)-2-(2-Ethyl-2H-tetrazol-5-yl)-5-[6-(3-iodo-benzylamino)-2-(pyrrolidin-3R-ylamino)-purin-9-yl]-tetrahydro-furan-3,4-diol Diformate] | >336 | 159 | 0.8 | – | – | –
6 | Cn1nnc(C2OC(n3cnc4c(NC5CCCC5)nc(NCCN5CCCCC5)nc43)C(O)C2O)n1.O=CO.O=CO [Example 25, (2R,3R,4S,5R)-2-[6-Cyclopentylamino-2-(2-piperidin-1-yl-ethylamino)-purin-9-yl]-5-(2-methyl-2H-tetrazol-5-yl)-tetrahydro-furan-3,4-diol Diformate] | >388 | 211.8 | 0.56 | – | – | –
7 | Cn1nnc(C2OC(n3cnc4c(NCC(c5ccccc5)c5ccccc5)nc(NCCN5CCCCC5)nc43)C(O)C2O)n1.O=CO.O=CO (stereo not drawn) [Example 26] | >329 | 241.4 | 0.86 | – | – | –
8 | Cn1cnc(CCNc2nc(NCC(c3ccccc3)c3ccccc3)c3ncn([C@@H]4O[C@H](c5nnn(C)n5)[C@@H](O)[C@H]4O)c3n2)c1.O=CO [Example 27, (2R,3R,4S,5R)-2-{6-(2,2-Diphenyl-ethylamino)-2-[2-(1-methyl-1H-imidazol-4-yl)-ethylamino]-purin-9-yl}-5-(2-methyl-2H-tetrazol-5-yl)-tetrahydro-furan-3,4-diol Formate] | >286 | 449.7 | 0.08 | – | – | –
9 | Cn1cnc(CCNc2nc(NCCC(C)(C)C)c3ncn([C@@H]4O[C@H](c5nnn(C)n5)[C@@H](O)[C@H]4O)c3n2)c1.O=CO [Example 28, (2R,3R,4S,5R)-2-{6-(3,3-Dimethyl-butylamino)-2-[2-(1-methyl-1H-imidazol-4-yl)-ethylamino]-purin-9-yl}-5-(2-methyl-2H-tetrazol-5-yl)-tetrahydro-furan-3,4-diol Formate] | >151 | >=1250 | 0.36 | – | – | –
10 | Cn1cnc(CCNc2nc(NCc3cccc(I)c3)c3ncn([C@@H]4O[C@H](c5nnn(C)n5)[C@@H](O)[C@H]4O)c3n2)c1.O=CO [Example 29, (2R,3R,4S,5R)-2-{6-(3-Iodo-benzylamino)-2-[2-(1-methyl-1H-imidazol-4-yl)-ethylamino]-purin-9-yl}-5-(2-methyl-2H-tetrazol-5-yl)-tetrahydro-furan-3,4-diol Formate] | >105 | >3561 | 0.87 | – | – | –
11 | Cn1cnc(CCNc2nc(NCc3ccccc3)c3ncn([C@@H]4O[C@H](c5nnn(C)n5)[C@@H](O)[C@H]4O)c3n2)c1.O=CO [Example 30, (2R,3R,4S,5R)-2-{6-Benzylamino-2-[2-(1-methyl-1H-imidazol-4-yl)-ethylamino]-purin-9-yl}-5-(2-methyl-2H-tetrazol-5-yl)-tetrahydro-furan-3,4-diol Formate] | >105 | >7976 | 0.43 | – | – | –
12 | Cn1cnc(CCNc2nc(NCCC3CCCCC3)c3ncn([C@@H]4O[C@H](c5nnn(C)n5)[C@@H](O)[C@H]4O)c3n2)c1.O=CO [Example 31, (2R,3R,4S,5R)-2-{6-(2-Cyclohexyl-ethylamino)-2-[2-(1-methyl-1H-imidazol-4-yl)-ethylamino]-purin-9-yl}-5-(2-methyl-2H-tetrazol-5-yl)-tetrahydro-furan-3,4-diol Formate] | >100 | >=3680 | 0.49 | – | – | –
13 | Cn1cnc(CCNc2nc(NC(CO)Cc3ccccc3)c3ncn(C4OC(c5nnn(C)n5)C(O)C4O)c3n2)c1 [Example 32, (2R,3R,4S,5R)-2-{6-(1S-Hydroxymethyl-2-phenyl-ethylamino)-2-[2-(1-methyl-1H-imidazol-4-yl)-ethylamino]-purin-9-yl}-5-(2-methyl-2H-tetrazol-5-yl)-tetrahydro-furan-3,4-diol Formate] | >100 | 56.2 | 0.026 | – | – | –
14 | CCC(CC)Nc1nc(NCCc2cn(C)cn2)nc2c1ncn2[C@@H]1O[C@H](c2nnn(C)n2)[C@@H](O)[C@H]1O.O=CO [Example 33, (2R,3R,4S,5R)-2-{6-(1-Ethyl-propylamino)-2-[2-(1-methyl-1H-imidazol-4-yl)-ethylamino]-purin-9-yl}-5-(2-methyl-2H-tetrazol-5-yl)-tetrahydro-furan-3,4-diol Formate] | >172 | >4045 | 0.16 | – | – | –
15 | Cn1cnc(CCNc2nc(NCCc3ccccc3)c3ncn([C@@H]4O[C@H](c5nnn(C)n5)[C@@H](O)[C@H]4O)c3n2)c1.O=CO [Example 34, (2R,3R,4S,5R)-2-{2-[2-(1-Methyl-1H-imidazol-4-yl)-ethylamino]-6-phenethylamino-purin-9-yl}-5-(2-methyl-2H-tetrazol-5-yl)-tetrahydro-furan-3,4-diol Formate] | >173 | 1316 | 0.13 | – | – | –
16 | Cn1nnc(C2OC(n3cnc4c(NC(CO)Cc5ccccc5)nc(NC5CCC(N)CC5)nc43)C(O)C2O)n1 [Example 35, (2R,3R,4S,5R)-2-[2-(trans-4-Amino-cyclohexylamino)-6-(1S-hydroxymethyl-2-phenyl-ethylamino)-purin-9-yl]-5-(2-methyl-2H-tetrazol-5-yl)-tetrahydro-furan-3,4-diol bis(Formate)] | >201 | 123 | 0.79 | – | – | –
